No end group written: not given here.
Tests used:
[1] = system: murine melanoma B16F10; assay: Reduction of the size of the tumor, subcutaneous murine melanoma in adult mice (Example 2); assay type: in vivo; details: adult C57BL/6 mice, s.c. B16F10 established 7 days, 50 μg/ml inoculated in the tumors for 5 days
Experimental: For the study of the reduction of the size of the tumor making use of different therapies and their comparison with that of the invention, 1×10^6 cells of murine melanoma B16F10 were inoculated in a subcutaneous manner in the left ventral flank of 8-12-week old female mice of the C57BL/6 strain.
After 7 days post-inoculation, 50 μg/ml of the following therapies were inoculated in the tumors for 5 days: LLO91-99 (only peptide from listeriolysin O of Listeria monocytogenes, LLO91-99), GNP (empty gluconanoparticles), GNP-LLO91-99 (gluconanoparticles synthesized with the peptide from listeriolysin O of Listeria monocytogenes, LLO91-99), GNP-GAPDH1-22 (nanoparticles synthesized with the peptide from glyceraldehyde-3-phosphate dehydrogenase of Listeria monocytogenes, GAPDH1-22) or no particle (NT). Dendritic cells loaded with the LLO91-99 (1×10^6 DC-LLO91-99) peptide were also included as a control, a vector previously used in therapy.
Following this treatment, the mice were sacrificed and the tumors recovered, measuring their size with a gauge.

[2] = system: murine melanoma B16OVA; assay: Reduction of tumor size, monotherapy or combination with immunological control point immunotherapies (Example 4); assay type: in vivo, mice; details: s.c. B16OVA
Experimental: For the study of the reduction of the tumor in adults and increasing the survival making use of different immunotherapies with immunological control points and their comparison as a monotherapy or combination therapy with that of the invention, 5×10^5 cells of murine melanoma B16OVA were inoculated in a subcutaneous manner just like in FIG. 1 (Example 2). Following 7 days post-inoculation, 50 μg/ml of the therapy of the invention were inoculated in the tumors for 7 days as a monotherapy, GNP-LLO91-99 (gluconanoparticles synthesized with the peptide from listeriolysin O of Listeria monocytogenes, LLO91-99), or in combination with the following immunotherapies with immunological control points, anti-CTLA-4 or anti-PD-1 in a dose of 100 μg/mouse every 2 days up to a total of 7 days or no particle (NT).
Following this treatment, the mice were sacrifice at different times following the therapies, 14, 21 or 30 days in total. The results are shown in FIG. 3A following the sacrifice of the mice, recovery of the tumors and measuring of their size with a gauge. In another similar experiment, the mice are not sacrificed and the effect of the therapies is evaluated in the survival of the mice.

[3] = system: A-375, human melanoma; assay: In vitro apoptosis-necrosis, flow cytometry annexin V-APC / 7-ADD; assay type: cell-based; details: 10 μg/ml, 16 hours, A375
Experimental: (§1) 1.—Tumor cells. The cells used are: Hepa1-6, murine hepatocarcinoma, TC-1, murine lung carcinoma; B16F10, murine melanoma; A-375, human melanoma; hamster melanoma (ATCC).
(§2) 2.—In vitro apoptosis-necrosis. The different tumor cells (1×10^6 cells) are treated with 10 μg/ml of the GNP-LLO91-99 gold nanoparticles in culture plates, 16 hours prior to the apoptosis-necrosis analysis, including cells of each type of tumor without treatment with the gold nanoparticles (control). Following washing, the cells are analyzed by means of flow cytometry using two specific products, annexin V conjugated with the APC fluorochrome and the fluorescent marker for binding to DNA, 7-ADD (7-amino-actinomycin D). Apoptosis and necrosis in the tumor cells are analyzed by means of the differential marking with annexin V-APC and 7-ADD expressed as percentages. While the necrosis is indicated as the percentage of cells doubly marked with annexin V-APC and 7-ADD, the apoptosis is expressed as the percentage of cells marked only with annexin V.

[4] = system: B16F10, murine melanoma; assay: as above; assay type: cell-based; details: 10 μg/ml, 16 hours
Experimental: as §1, §2

[5] = system: Hepa1-6, murine hepatocarcinoma; assay: as above; assay type: cell-based; details: 10 μg/ml, 16 hours
Experimental: as §1, §2

[6] = system: TC-1, murine lung carcinoma; assay: as above; assay type: cell-based; details: 10 μg/ml, 16 hours
Experimental: as §1, §2

[7] = system: hepatocarcinoma (Hepa 1-6); assay: In vitro activation cell markers, flow cytometry; assay type: cell-based, murine; details: 10 μg/ml pre-treatment
Experimental: as §1
(§3) 3.—Study of in vitro activation cell markers. The markers of the cell surface of the different tumor cells (1×10^6 cells) that are pre-treated or that are not pre-treated with 10 μg/ml of the GNP-LLO91-99 gold nanoparticles similar to the apoptosis process are analyzed by means of flow cytometry using the following antibodies (Miltenyi Biotech): anti-CD86-V450, anti-CD80-FITC, anti-MHC-II-APC, CD11c-PE, anti-NCAM-PE, anti-PD-1-V450.

[8] = system: lung cancer cells (TC-1); assay: In vitro activation cell markers, flow cytometry; assay type: cell-based, murine; details: 10 μg/ml pre-treatment
Experimental: as §1, §3

[9] = system: ovary tumor cells (CHO); assay: In vitro activation cell markers, flow cytometry; assay type: cell-based, hamster; details: 10 μg/ml pre-treatment
Experimental: as §1, §3

[10] = system: hepatocarcinomas; assay: Subcutaneous tumor transplant model (Example 9); assay type: in vivo, mice; details: subcutaneous transplants, C57BL/6, 50 μg/ml in-situ for 7 days
Experimental: as §1
(§4) 4.—Subcutaneous tumor transplant model. 8-12 week old females of the strain C57BL/6 are inoculated in the right flank with 1×10^5 tumor cells for 7 days in order to develop a measurable tumor (4-6 mm thickness). Subsequently, the tumors are inoculated in-situ with 50 μg/ml of the GNP-LLO91-99 gold nanoparticles for 7 days. The size of the tumors is measured with a gauge and is expressed in volume using the following formula: (length×(width)^2)/2.

[11] = system: lung cancer cells; assay: Subcutaneous tumor transplant model (Example 9); assay type: in vivo, mice; details: subcutaneous transplants, C57BL/6, 50 μg/ml in-situ for 7 days
Experimental: as §1, §4

[12] = system: melanomas; assay: Subcutaneous tumor transplant model (Example 9); assay type: in vivo, mice; details: subcutaneous transplants, C57BL/6, 50 μg/ml in-situ for 7 days
Experimental: as §1, §4

[13] = system: ovary tumor cells; assay: Subcutaneous tumor transplant model (Example 9); assay type: in vivo, mice; details: subcutaneous transplants, C57BL/6, 50 μg/ml in-situ for 7 days

GNP-LLO91-99: gluconanoparticles synthesized with the peptide from listeriolysin O of Listeria monocytogenes, LLO91-99 (GYKDGNEYI; also: gold glyconanoparticle conjugate; UniProt P13128 91-99, looked up, fragment)
therapeutic effect on the melanoma (in words) [1]: does achieve a significant tumor regression
tumor regression [1]: 90%
tumor regression ([2]; combination therapy with anti-CTLA-4 (100 μg/mouse every 2 days), at 14 days): up to 90%
tumor regression ([2]; combination therapy with anti-CTLA-4 (100 μg/mouse every 2 days), at 30 days): up to 90%
tumor regression ([2]; combination with anti-PD-1 (100 μg/mouse every 2 days), at 14 days): 100%
tumor regression ([2]; combination with anti-PD-1 (100 μg/mouse every 2 days), at 30 days): 100%
tumor regression ([2]; monotherapy, 50 μg/ml in the tumors, 7 days): 80%
tumor regression ([2]; monotherapy, 50 μg/ml in the tumors, at 14 days): 90%
tumor regression ([2]; monotherapy, 50 μg/ml in the tumors, at 30 days): 90%
effect of inducing apoptosis [3]: much more pronounced
effect of inducing apoptosis [4]: much more pronounced
effect of inducing apoptosis [5]: much more pronounced
induction of tumor apoptosis and necrosis [5]: induce both tumor apoptosis and necrosis
effect of inducing apoptosis [6]: much more pronounced
induction of tumor apoptosis and necrosis [6]: induce both tumor apoptosis and necrosis
expression of immune cell activation markers ([7]; Hepa 1-6): boosted the expression of various activation markers such as MHC-I, MHC-II, CD80 and PD-1
expression of PD-1 ([7]; hepatocarcinomas): high expression of PD-1
expression of immune cell activation markers [8]: only boosted the expression of MHC-I
expression of immune cell activation markers [9]: did not undergo a variation in any of the markers analyzed
in vivo inhibitory effect of the tumor [10]: inhibitory effect of the tumor is also observed in vivo
in vivo inhibitory effect of the tumor [11]: inhibitory effect of the tumor is also observed in vivo
in vivo inhibitory effect of the tumor [12]: inhibitory effect of the tumor is also observed in vivo
in vivo inhibitory effect of the tumor [13]: does not cause any effect
